Activity calls are given as the source filed them.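 How the source made its calls: active means compounds whose half-maximal inhibitory concentration IC50 is 20 µM or lower; inactive means the rest.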
Tested on: isolated mouse liver mitochondria, Ca2+ swelling, A540 20 min
Assay: mtPTP inhibitors blocking calcium-induced swelling, dose response, dry powder samples, uHTS hits, absorbance (AID 743359)

Row | Compound | IC50
1 | COc1ccc(Cl)cc1S(=O)(=O)Nc1ccc(CN2CCN(C)CC2)cc1 | > 50 µM (inactive)
2 | COc1ccc(Cl)cc1C(=O)Nc1ccc(N(C)C)cc1 | 10.1 µM
3 | COc1ccccc1C(=O)Nc1ccc(C(=O)N2CCCCC2)cc1 | > 50 µM (inactive)
4 | COc1ccc(Cl)cc1C(=O)Nc1ccc(N2CCCCC2)cc1 | > 50 µM (inactive)
5 | O=C(Nc1cccc(Cl)c1)c1cc(-c2ccccc2)on1 | 47.2 µM (inactive)
6 | COc1ccc(Cl)c(C(=O)Nc2ccc(CCN3CCN(C)CC3)cc2)c1 | > 50 µM (inactive)
7 | CN1CCN(c2ccc(NS(=O)(=O)c3cc(Cl)cc(Cl)c3)cc2)CC1 | 44.9 µM (inactive)
8 | CN1CCN(Cc2ccc(NS(=O)(=O)c3cccc(Cl)c3)cc2)CC1 | > 50 µM (inactive)
9 | CC1CCN(CCCC(=O)c2ccc(Br)cc2)CC1 | 40.9 µM (inactive)
10 | O=S(=O)(Nc1ccc(CN2CCCCC2)cc1)c1ccc(F)c(Cl)c1 | > 50 µM (inactive)
11 | CN1CCN(c2ccc(NC(=O)c3cccc(OCc4ccccc4)c3)cc2)CC1 | 1.92 µM
12 | COc1ccc(Cl)c(C(=O)Nc2ccc(CN3CCOCC3)cc2)c1 | > 50 µM (inactive)
13 | COc1ccc(Cl)cc1C(=O)Nc1ccc(CCN2CCOCC2)cc1 | 13.8 µM
14 | COc1ccc(Cl)cc1C(=O)Nc1ccc(CN2CCNCC2)cc1 | 2.24 µM
15 | O=C(Nc1cc(Cl)ccc1F)c1cc(-c2cccc(O)c2)on1 | < 0.391 µM
16 | COc1ccc(Cl)cc1C(=O)Nc1cccc(CN2CCN(C(=O)OC(C)(C)C)CC2)c1 | > 50 µM (inactive)
17 | O=C(Nc1cccc(F)c1)c1cc(-c2cccc(O)c2)on1 | 4.61 µM
18 | Cc1ccc(-c2cc(C(=O)Nc3cccc(Cl)c3)no2)cc1 | > 50 µM (inactive)
19 | CN1CCN(c2ccc(NS(=O)(=O)c3ccc(F)c(Cl)c3)cc2)CC1 | > 50 µM (inactive)
20 | CCN(C(=O)c1cc(Cl)ccc1OC)c1ccccc1 | > 50 µM (inactive)
21 | O=S(=O)(Nc1ccc(CCN2CCCCC2)cc1)c1cccc(Cl)c1 | > 50 µM (inactive)
22 | O=C(Nc1ccc(CN2CCCCC2)cc1)c1ccc(Cl)c(OCc2ccccc2)c1 | < 0.391 µM
23 | COc1cccc(-c2cc(C(=O)Nc3cc(Cl)ccc3C)no2)c1 | 40 µM (inactive)
24 | CN1CCN(c2ccc(NS(=O)(=O)c3cccc(Cl)c3)cc2)CC1 | > 50 µM (inactive)
25 | COc1ccc(Cl)c(C(=O)Nc2ccc(CCN3CCCCC3)cc2)c1 | > 50 µM (inactive)

Row | Compound | IC50
26 | COc1ccc(Cl)cc1C(=O)Nc1ccc(CCN2CCCCC2)cc1 | 6 µM
27 | COc1ccc(Cl)cc1C(=O)Nc1cccc(CN2CCNCC2)c1 | 4.74 µM
28 | O=C(Nc1ccccc1OCc1ccccc1)c1cc(-c2cccc(O)c2)on1 | > 50 µM (inactive)
29 | Cc1ccc(Cl)cc1NC(=O)c1cc(-c2cccc(O)c2)on1 | < 0.391 µM
30 | CN1CCN(CCc2ccc(NS(=O)(=O)c3cccc(Cl)c3)cc2)CC1 | > 50 µM (inactive)
31 | COc1ccc(Cl)c(C(=O)Nc2ccc(CCN3CCOCC3)cc2)c1 | > 50 µM (inactive)
32 | CN1CCN(Cc2ccc(NC(=O)c3cccc(OCc4ccccc4)c3)cc2)CC1 | 3.31 µM
33 | O=C(Nc1cccc(Cl)c1)c1cc(-c2ccc(Cl)cc2)on1 | > 50 µM (inactive)
34 | CC(C)c1cc(C(=O)Nc2ccc(F)cc2F)no1 | 24 µM (inactive)
35 | COc1ccc(Cl)c(C(=O)Nc2ccc(CN3CCN(C)CC3)cc2)c1 | > 50 µM (inactive)
36 | O=C(Nc1cc(Cl)ccc1Cl)c1cc(-c2cccc(O)c2)on1 | 1.6 µM
37 | COc1ccc(Cl)c(C(=O)Nc2ccc(CCN3CCN(C(=O)OC(C)(C)C)CC3)cc2)c1 | > 50 µM (inactive)
38 | O=C(Nc1cccc(Cl)c1Cl)c1cc(-c2cccc(O)c2)on1 | 10.4 µM
39 | Cc1cc(NC(=O)c2ccc(-n3cnnc3)cc2)no1 | > 50 µM (inactive)
40 | COc1ccc(Cl)cc1C(=O)Nc1ccc(CN2CCN(C(=O)OC(C)(C)C)CC2)cc1 | 14.9 µM
41 | O=S(=O)(Nc1ccc(CCN2CCCCC2)cc1)c1ccc(F)c(Cl)c1 | > 50 µM (inactive)
42 | COc1ccc(Cl)cc1C(=O)Nc1ccc(CCN2CCN(C(=O)OC(C)(C)C)CC2)cc1 | 20.1 µM
43 | COc1ccccc1C(=O)Nc1ccc(CN2CCCCC2)cc1 | 46.5 µM (inactive)
44 | COc1ccc(NC(=O)c2cc(-c3cccc(O)c3)on2)cc1Cl | < 0.391 µM
45 | O=C(Nc1ccc(F)cc1F)c1cc(-c2ccccc2)on1 | > 50 µM (inactive)
46 | CN1CCN(Cc2ccc(NS(=O)(=O)c3ccc(F)c(Cl)c3)cc2)CC1 | > 50 µM (inactive)
47 | COc1ccc(Cl)cc1C(=O)Nc1ccc(CCN2CCNCC2)cc1 | 5.28 µM
48 | O=C(Nc1ccc(CN2CCCCC2)cc1)c1cc(OCc2ccccc2)ccc1Cl | 2.44 µM
49 | COc1ccc(Cl)cc1S(=O)(=O)Nc1ccc(CN2CCCCC2)cc1 | > 50 µM (inactive)
50 | O=C(Nc1ccc(Cl)cc1)c1cc(-c2cccc(O)c2)on1 | 0.423 µM

Row | Compound | IC50
51 | O=C(Nc1ccc(CN2CCCCC2)cc1)c1cccc(OCc2ccccc2)c1 | 0.95 µM
52 | COc1ccc(Cl)c(C(=O)Nc2ccc(CN3CCN(C(=O)OC(C)(C)C)CC3)cc2)c1 | 18.2 µM (inactive)
53 | Cc1cc(NC(=O)c2cc(-c3ccc(F)cc3)on2)no1 | > 50 µM (inactive)
54 | Cc1c(Cl)cccc1NC(=O)c1cc(-c2cccc(O)c2)on1 | < 0.391 µM
55 | O=C(Nc1ccc(CN2CCCCC2)cc1)c1cc(Cl)ccc1O | > 50 µM (inactive)
56 | Cc1ccc(NC(=O)c2cc(-c3cccc(O)c3)on2)cc1Cl | 0.83 µM
57 | COc1ccc(Cl)cc1C(=O)Nc1ccc(CN2CCN(C)CC2)cc1 | 13.5 µM
58 | O=C(Nc1ccc(Cl)cc1)c1cc(-c2ccccc2)on1 | > 50 µM (inactive)
59 | COc1c(Cl)cccc1NC(=O)c1cc(-c2cccc(O)c2)on1 | 27.6 µM (inactive)
60 | CN1CCN(c2ccccc2NC(=O)c2ccc(OCc3ccccc3)cc2)CC1 | 2.3 µM
61 | O=S(=O)(Nc1ccc(CCN2CCCCC2)cc1)c1cc(Cl)cc(Cl)c1 | 25.1 µM (inactive)
62 | COc1ccc(Cl)cc1S(=O)(=O)Nc1ccc(CCN2CCN(C)CC2)cc1 | > 50 µM (inactive)
63 | COc1ccc(C(=O)CCN2CCCC(C)C2)cc1 (centres undefined) | 38 µM (inactive)
64 | CN1CCN(c2ccc(NC(=O)c3ccc(OCc4ccccc4)cc3)cc2)CC1 | > 50 µM (inactive)
65 | CC(C)C1CCN(CCCC(=O)c2ccc(Br)cc2)CC1 | 10.3 µM
66 | COc1ccc(/C=C/C(=O)Nc2cccc(Cl)c2)cc1O | < 0.391 µM
67 | O=C(Nc1cccc(Cl)c1)c1cc(-c2cccc(O)c2)on1 | < 0.391 µM
68 | CN1CCN(CCc2ccc(NC(=O)c3cccc(OCc4ccccc4)c3)cc2)CC1 | 3.84 µM
69 | COc1ccc(NC(=O)c2cc(Cl)cc(Cl)c2OC)cc1 | > 50 µM (inactive)
70 | COc1ccc(Cl)cc1S(=O)(=O)Nc1ccc(CCN2CCCCC2)cc1 | > 50 µM (inactive)
71 | O=S(=O)(Nc1ccc(CN2CCCCC2)cc1)c1cccc(Cl)c1 | > 50 µM (inactive)
72 | CN1CCN(CCc2ccc(NS(=O)(=O)c3cc(Cl)cc(Cl)c3)cc2)CC1 | 47.8 µM (inactive)
73 | COc1ccc(Cl)cc1C(=O)Nc1ccc(N2CCOCC2)cc1 | > 50 µM (inactive)
74 | CCc1ccccc1NC(=O)c1cc(-c2ccccc2)on1 | > 50 µM (inactive)
75 | O=C(Nc1ccccc1C(F)(F)F)c1cc(-c2ccccc2)on1 | > 50 µM (inactive)

Row | Compound | IC50
76 | CN1CCN(Cc2ccc(NS(=O)(=O)c3cc(Cl)cc(Cl)c3)cc2)CC1 | 23.3 µM (inactive)
77 | CCCc1cc(C(=O)Nc2c(F)cc(F)cc2Br)no1 | 4.96 µM
78 | COc1ccc(Cl)cc1C(=O)Nc1ccc(CN2CCCCC2)cc1 | 1.72 µM
79 | CCN(CC)c1ccc(NC(=O)c2ccc(OC)c(Cl)c2)cc1 | > 50 µM (inactive)
80 | O=C(Nc1cc(Cl)cc(Cl)c1)c1cc(-c2cccc(O)c2)on1 | < 0.391 µM
81 | CN1CCN(c2ccc(Cl)cc2NC(=O)/C=C/c2cccc(F)c2)CC1 | 0.69 µM
82 | COc1ccc(Cl)c(C(=O)Nc2cccc(CN3CCN(C(=O)OC(C)(C)C)CC3)c2)c1 | > 50 µM (inactive)
83 | O=C(Nc1ccc(CCN2CCCCC2)cc1)c1cccc(OCc2ccccc2)c1 | 2.3 µM
84 | COc1ccc(Cl)cc1C(=O)Nc1ccc(CN2CCOCC2)cc1 | 15.1 µM
85 | CCCc1cc(C(=O)Nc2ccc(Br)cc2)no1 | > 50 µM (inactive)
86 | COc1ccc(Cl)cc1S(=O)(=O)Nc1ccc(N2CCN(C)CC2)cc1 | > 50 µM (inactive)
87 | COc1ccc(Cl)cc1C(=O)Nc1ccc(N2CCN(C)CC2)cc1 | 6.13 µM
88 | COc1ccc(NC(=O)c2cc(-c3ccc(Cl)cc3)on2)cc1Cl | > 50 µM (inactive)
89 | O=C(Nc1ccc(N2CCCCC2)cc1)c1cccc(OCc2ccccc2)c1 | > 50 µM (inactive)
90 | COc1ccc(Cl)cc1C(=O)Nc1ccc(CCN2CCN(C)CC2)cc1 | 10.7 µM
91 | O=C(Nc1ccc(OCc2ccccc2)c(Cl)c1)c1cc(-c2cccc(O)c2)on1 | > 50 µM (inactive)
92 | O=S(=O)(Nc1ccc(CN2CCCCC2)cc1)c1cc(Cl)cc(Cl)c1 | > 50 µM (inactive)
93 | O=C(Nc1ccc(CN2CCCCC2)cc1)c1cccc(Cl)c1 | 15 µM
94 | O=C(Nc1ccc(CN2CCCCC2)cc1)c1cc(Cl)cc(OCc2ccccc2)c1 | < 0.391 µM
95 | O=C(Nc1ccc(Br)cc1)c1cc(C2CC2)on1 | 6.34 µM
96 | C[C@@H]1CCC[C@H](C)N1CCCC(=O)c1ccc(Br)cc1 | > 50 µM (inactive)
97 | COc1ccc(Cl)cc1C(=O)Nc1ccccc1 | 6.35 µM (inactive)
98 | CC1(C)CCN(CCCC(=O)c2ccc(Br)cc2)CC1 | 13.9 µM
99 | CN1CCN(CCc2ccc(NS(=O)(=O)c3ccc(F)c(Cl)c3)cc2)CC1 | > 50 µM (inactive)

From PubChem BioAssay AID743359 (Molecular Libraries Program, Specialized Chemistry Center, …, 2014)
